One assay addresses T1, STAT6 (Homo sapiens, UniProt P42226).
T1 construct: These cells express endogenous STAT6; host or cells: HeLa LgBiT clone 4.14 (CRISPR knock-in of HiBiT into the endogenous STAT6 gene)
T1 sequence (P42226 1-847): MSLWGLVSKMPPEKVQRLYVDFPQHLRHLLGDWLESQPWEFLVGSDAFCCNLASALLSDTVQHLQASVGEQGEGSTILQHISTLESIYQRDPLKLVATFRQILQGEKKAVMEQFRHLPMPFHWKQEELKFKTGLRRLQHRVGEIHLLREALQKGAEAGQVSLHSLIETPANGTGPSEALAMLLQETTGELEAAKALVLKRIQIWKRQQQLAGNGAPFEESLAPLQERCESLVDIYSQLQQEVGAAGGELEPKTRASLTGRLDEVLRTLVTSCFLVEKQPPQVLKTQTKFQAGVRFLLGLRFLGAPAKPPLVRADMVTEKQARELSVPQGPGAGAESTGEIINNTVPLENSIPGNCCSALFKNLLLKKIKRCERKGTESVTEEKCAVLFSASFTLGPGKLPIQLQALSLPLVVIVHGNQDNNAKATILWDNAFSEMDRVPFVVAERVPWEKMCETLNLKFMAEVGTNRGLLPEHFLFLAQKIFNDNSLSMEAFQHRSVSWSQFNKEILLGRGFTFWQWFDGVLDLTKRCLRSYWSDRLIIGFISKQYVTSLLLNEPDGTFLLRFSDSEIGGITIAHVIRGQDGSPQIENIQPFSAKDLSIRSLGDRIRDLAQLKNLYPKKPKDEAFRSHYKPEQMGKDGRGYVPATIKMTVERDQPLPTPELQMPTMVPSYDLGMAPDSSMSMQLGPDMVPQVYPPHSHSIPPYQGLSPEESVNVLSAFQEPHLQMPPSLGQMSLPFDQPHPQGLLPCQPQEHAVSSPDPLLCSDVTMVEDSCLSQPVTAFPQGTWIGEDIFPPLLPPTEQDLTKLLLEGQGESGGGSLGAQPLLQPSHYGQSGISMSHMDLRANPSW
Description: STAT6 Degrader Assay (HiBiT based, HeLa LgBiT clone 4.14 cells). The class given is cell-based. The conditions noted are these: geometric mean across assay runs and compound batches; DC50 provided for test compounds with >80% Emax; read-out: STAT6 degradation DC50. The method in brief:
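DC50 (nM) comes from NanoBiT luminescence of HiBiT-knock-in STAT6 in HeLa LgBiT clone 4.14 cells, treated 4-24 h at 37° C. Luminescence reflects non-degraded STAT6, with 50 μM terfenadine wells taken as full degradation.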
(In general: The HiBiT peptide binds its large partner to form an active luciferase.)

Assay [1] concerns Eotaxin-3 (CCL26) release. Kind of assay: Human Whole Blood Eotaxin-3 Assay (IL-4 stimulated). The following applies: Homo sapiens; geometric mean across assay runs and compound batches; EC50 provided for test compounds with >80% Emax. The format is cell-based. In short, it runs like this: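 Lithium-heparin human whole blood preincubated 2 h at 37 °C with compounds (4-fold dilutions, triplicate, 0.5% DMSO final). Then stimulated with 400 pM final recombinant human IL-4 for 48 h. Eotaxin-3 in supernatant quantified by MSD immunoassay.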

Drawing on patent publication US20250320205A1, “STAT6 DEGRADERS” (Gilead Sciences, Inc., priority 2024, published 2025), this text covers DC50 and EC50 for 12 molecules.

Usually DC50 stands for the midpoint of the concentration-degradation curve. The EC50 is the concentration at which the effect is half-maximal. Read a low EC50 as a more potent agent. For `CNc1ccn(-c2ccnc3c2cc([C@H](C)N2CC=C(c4c(C)cc(C(=O)N5CCC(CN6CCN(c7ccc(NC8CCC(=O)NC8=O)cc7F)C[C@@H]6C)CC5)cc4F)CC2)n3C)c(=O)c1` (stereo partly drawn) [Example 2g97, 3-((3-fluoro-4-((S)-4-((1-(3-fluoro-5-methyl-4-(1-((S)-1-(1-methyl-4-(4-(methyl-amino)-2-oxopyridin-1(2H)-yl)-1H-pyrrolo[2,3-b]pyridin-2-yl)ethyl)-1,2,3,6-tetrahydro-pyridin-4-yl)benzoyl)piperi-din-4-yl)methyl)-3-methyl-piperazin-1-yl)phenyl)amino)-piperidine-2,6-dione], at STAT6, the DC50 was 20.8 nM. This molecule returned an EC50 in assay [1] of 36.7 nM.
Turning to `CNc1ccn(-c2ccnc3c2cc([C@H](C)N2CC=C(c4c(C)cc(C(=O)N5CCn6nc(CN7CCC(c8ccc(NC9CCC(=O)NC9=O)c(OC)c8)CC7)cc6C5)cc4F)CC2)n3C)c(=O)c1` (stereo partly drawn) [Example 2g116, 3-((4-(1-((5-(3-fluoro-5-meth-yl-4-(1-((S)-1-(1-methyl-4-(4-(methylamino)-2-oxopyridin-1(2H)-yl)-1H-pyrrolo[2,3-b]pyridin-2-yl)ethyl)-1,2,3,6-tetrahydropyridin-4-yl)benzo-yl)-4,5,6,7-tetrahydropyrazolo [1,5-a]pyrazin-2-l)methyl)-piperidin-4-yl)-2-methoxy-phenyl)amino)-piperidine-2,6-dione], on STAT6, the DC50 amounted to 0.3 nM. This molecule also returned an EC50 in assay [1] of 0.5 nM.
Take `CNc1cc(=O)n(-c2ccnc3c2cc([C@H](C)N2CCC(c4c(F)cc(C(=O)N5CCn6nc(CN7CCC(c8ccc(NC9CCC(=O)NC9=O)cc8F)CC7)cc6C5)cc4F)CC2)n3C)cc1F` (stereo partly drawn) [Example 2g111, 3-((4-(1-((5-(3,5-difluoro-4-(1-((S)-1-(4-(5-fluoro-4-(methylamino)-2-oxopyridin-1(2H)-yl)-1-methyl-1H-pyrrolo[2,3-b]pyridin-2-yl)-ethyl)piperidin-4-yl)benzoyl)-4,5,6,7-tetrahydropyrazolo [1,5-a]pyrazin-2-yl)methyl)-piperidin-4-yl)-3-fluorophen-yl)amino)piperidine-2,6-dione]: the DC50 on STAT6 amounted to 0.6 nM. Moreover, in assay [1], the EC50 came out at 0.6 nM.
With `CNc1ccn(-c2ccnc3c2cc(CN2CCC(c4c(F)cc(C(=O)N5CCC(CN6CCN(c7ccc(N[C@H]8CCC(=O)NC8=O)cc7F)CC6)CC5)cc4F)CC2)n3C)c(=O)c1` (single isomer, unassigned) [Example 2g58], the DC50 at STAT6 was determined as 10.4 nM. The EC50 in assay [1] turned out to be 196 nM.
For the molecule `CNc1cc(=O)n(-c2ccnc3c2cc([C@H](C)N2CC=C(c4c(F)cc(C(=O)N5CCC(CN6CCN(c7ccc(N[C@H]8CCC(=O)NC8=O)cc7F)CC6)CC5)cc4F)CC2)n3C)cc1F` (single isomer, unassigned) [Example 2g120], the DC50 on STAT6 is 9.4 nM. This molecule also came in with an EC50 in assay [1] of 36.5 nM.
`CNc1cc(=O)n(-c2ccnc3c2cc([C@H](C)N2CC=C(c4c(C)cc(C(=O)N5CCn6nc(CN7CCC(c8ccc(N[C@H]9CCC(=O)NC9=O)c(OC)c8)CC7)cc6C5)cc4F)CC2)n3C)cc1F` (single isomer, unassigned) [Example 2g11]: the DC50 at STAT6 was 1 nM. In assay [1], this molecule registered an EC50 of 1.7 nM.
For `CNc1ccn(-c2ccnc3c2cc([C@H](C)N2CC=C(c4c(C)cc(C(=O)N5CCn6nc(CN7CCC(c8ccc(N[C@@H]9CCC(=O)NC9=O)c(OC)c8)CC7)cc6C5)cc4F)CC2)n3C)c(=O)c1` (single isomer, unassigned) [Example 2g118], the DC50 at STAT6 is 0.1 nM. In assay [1], this molecule showed an EC50 of 1.1 nM.
`CNc1ccn(-c2ccnc3c2cc([C@H](C)N2CC=C(c4c(C)cc(C(=O)N5CCn6nc(CC7(O)CCN(c8ccc(NC9CCC(=O)NC9=O)cc8F)CC7)cc6C5)cc4F)CC2)n3C)c(=O)c1` (stereo partly drawn) [Example 2g26, 3-((3-fluoro-4-(4-((5-(3-fluoro-5-methyl-4-(1-((S)-1-(1-methyl-4-(4-(methyl-amino)-2-oxopyridin-1(2H)-yl)-1H-pyrrolo[2,3-b]pyridin-2-yl)ethyl)-1,2,3,6-tetrahydro-pyridin-4-yl)benzoyl)-4,5,6,7-tetrahydropyrazolo[1,5-a]pyr-azin-2-yl)methyl)-4-hydroxy-piperidin-1-yl)phenyl)amino)-piperidine-2,6-dione]: the DC50 at STAT6 was found to be 1.5 nM. Besides, in assay [1], the EC50 was determined as 0.9 nM.
Regarding `Cc1cc(C(=O)N2CCn3nc(CN4CCC(c5ccc(NC6CCC(=O)NC6=O)cc5F)CC4)cc3C2)cc(F)c1C1=CCN([C@@H](C)c2cc3c(-n4cc(F)c5c(c4=O)CCN5)ccnc3n2C)CC1` (stereo partly drawn) [Example 2g14, 3-((3-fluoro-4-(1-((5-(3-fluoro-4-(1-((S)-1-(4-(7-fluoro-4-oxo-1,2,3,4-tetra-hydro-5H-pyrrolo[3,2-c]pyridin-5-yl)-1-methyl-1H-pyrrolo[2,3-b]pyridin-2-yl)-ethyl)-1,2,3,6-tetrahydro-pyridin-4-yl)-5-methylbenzo-yl)-4,5,6,7-tetrahydropyrazolo [1,5-a]pyrazin-2-yl)methyl)-piperidin-4-yl)phenyl)amino)-piperidine-2,6-dione], the DC50 on STAT6 was determined as 2.2 nM. The same molecule displayed an EC50 in assay [1] of 3.5 nM.
The corresponding values for `CNc1cc(=O)n(-c2ccnc3c2cc(CN2CCC(c4c(F)cc(C(=O)N5CCn6nc(CN7CCC(c8ccc(N[C@H]9CCC(=O)NC9=O)c(OC)c8)CC7)cc6C5)cc4F)CC2)n3C)cc1F` (single isomer, unassigned) [Example 2g123] are 1.8 nM and 2.6 nM.
With `CNc1ccn(-c2ccnc3c2cc([C@H](C)N2CC=C(c4c(C)cc(C(=O)N5CCn6nc(CN7CCC(c8ccc(N[C@H]9CCC(=O)NC9=O)c(OC)c8)CC7)cc6C5)cc4F)CC2)n3C)c(=O)c1` (single isomer, unassigned) [Example 2g117], at STAT6, the DC50 was determined as 0.3 nM. In addition, the EC50 in assay [1] came to 0.5 nM.
In the case of `CNc1cc(=O)n(-c2ccnc3c2cc([C@H](C)N2CC=C(c4c(F)cc(C(=O)N5CCn6nc(CN7CCC(c8ccc(NC9CCC(=O)NC9=O)cc8F)CC7)cc6C5)cc4F)CC2)n3C)cc1F` (stereo partly drawn) [Example 2g112, 3-((4-(1-((5-(3,5-difluoro-4-(1-((S)-1-(4-(5-fluoro-4-(methylamino)-2-oxopyridin-1(2H)-yl)-1-methyl-1H-pyr-rolo[2,3-b]pyridin-2-yl)ethyl)-1,2,3,6-tetrahydropyridin-4-yl)benzoyl)-4,5,6,7-tetra-hydropyrazolo[1,5-a]pyrazin-2-yl)methyl)piperidin-4-yl)-3-fluorophenyl)amino)piperi-dine-2,6-dione], at STAT6, the half-maximal degradation concentration (DC50) came out at 1.1 nM. Moreover, the midpoint of the response in assay [1], the EC50, lay at 0.9 nM.
